# Source: US20240344108A1, “GALACTOSE RAPID QUANTITATIVE DETECTION SYSTEM AND USE THEREOF” (Avalon HepaPOC Limited, priority 2018, published 2024)
# Like-named read-outs stand apart in the source and are kept apart here.
# Key:
# [1] = Intravenous injection galactose GSP test (blood galactose after intravenous galactose); format: in vivo; conditions: human, plasma, 0.5 g/kg, average ± standard error
# Experimental: The conventional detection method is used for intravenous injection of 0.5 g/kg galactose after fasting for 8 hours, and measured the galactose concentration in plasma after 60 minutes (Tang H. S. et al. (1992) Digestion, 52:222-231; Ranek L. et al. (1983) Clin. Physiol. 3:173-178). The measurement method comprises: drawing a measurement curve according to a relationship between different concentrations of standard galactose solutions and light absorption values thereof; adding HClO4 in the extracted blood and shaking for mixing, then taking supernatant by centrifugation; adding KOH into the supernatant and shaking for mixing, then taking supernatant by centrifugation again; and then adding galactose dehydrogenase into the supernatant and placing in a dark room for 60 minutes to avoid color reaction inaccuracy for preparing of a specimen and measuring the light absorption value thereof; and finally finding the concentration value by the measurement curve. However, the detection process is complicated and time-consuming, and requires using a variety of medicaments. Therefore, it takes lengthy procedure to learn the detecting result.
# The oral administration galactose OGSP values of the subjects in the liver function normal group are in the range 318±27 μg/ml (average±standard error) with the minimum value 18 μg/ml and maximum value 887 μg/ml. […] The oral administration galactose OGSP values of the subjects in the liver function severely impaired group are in the range 777±48 μg/ml with the minimum value 293 μg/ml and maximum value 1499 μg/ml. […] Particularly, the oral administration galactose OGSP value is higher than the intravenous injection galactose GSP value. […] The oral administration galactose OGSP values of the subjects in the liver function severely impaired group are mainly in the range of 681-873 μg/ml (average+2*standard error). […] Therefore, further liver function tests should be taken in the subjects whose OGSP value is greater than 370 μg/ml. In additional to intravencous injection, similar results were obtained by other injection or other administration ways.
# [2] = average ± standard error, literature values, cited from earlier work
# clinical = conditions: human, in vivo
# Description: The user needs to drink the oral galactose composition first, wherein the content of the galactose is 1%-80%, preferably 4%-40%, by weight of the total galactose composition, wherein the buffer solution can be not added or can be added to the total weight of 0.001%-5%, and the antioxidant can be not added or can be added to the total weight of 0.001%-5%. Appropriate formula can be prepared by selecting the buffer and the antioxidant, and adding the content of the following ingredients: antioxidant of 0.01M-1M selected from a group including vitamin C, sodium bisulfite, vitamin A, vitamin E, flavonoids, polyphenols, Ethylenediaminetetraacetic acid (EDTA), Diethylenetriaminepentaacetic acid (DTPA), and NTA-Nitrilotriacetate acid (NTA); and/or buffer solution of 0.01M-1M selected from a group including acetic buffer, citrate buffer, phosphate buffer, acetate buffer, carbonate buffer, ascorbic acid buffer, and triethanolamine buffer with adjustment of the pH values ranged 4.0-9.0. A stable formula can be obtained by adding 0.01% citrate buffer and 0.5% sodium bisulfite with a pH value of 4.5. […]
# Before sampling biological sample, wipe the fingertips with alcohol cotton. […] In addition, the potential of this readout can be transmitted to the others including medical practitioners through Bluetooth or similar connection through a mobile phone or computer. […]
# galactose dehydrogenase [3] = target: T1, galactose dehydrogenase (Pseudomonas fluorescens, UniProt P11886); test: Electrochemical response after galactose dehydrogenase immobilization and drying onto the biosensor with protectant; conditions: protectant used as stabilizer during immobilization and drying
# T1 construct: purchased
# T1 sequence (P11886 1-304): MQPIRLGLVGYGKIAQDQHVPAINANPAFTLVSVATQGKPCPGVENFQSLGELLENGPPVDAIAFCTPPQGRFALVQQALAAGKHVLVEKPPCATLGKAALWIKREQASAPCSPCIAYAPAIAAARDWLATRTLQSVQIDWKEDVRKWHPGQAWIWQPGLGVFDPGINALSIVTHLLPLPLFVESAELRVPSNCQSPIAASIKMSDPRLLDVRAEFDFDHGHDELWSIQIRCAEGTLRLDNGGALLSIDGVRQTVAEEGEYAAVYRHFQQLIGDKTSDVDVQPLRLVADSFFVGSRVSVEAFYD
# Description: The electrochemistry-based biosensor is designed as a test strip of electrode containing a reaction zone where galactose within the blood sample is to react with galactose metabolic enzymes, leading to the generation of an electrochemical signal. Two galactose-catalyzing enzymes, galactose dehydrogenase (GD) and galactose oxidase (GO) capable of generating electrochemical information, were selected for embedded immobilization and drying onto the electrode to enable electrochemical signal production. […] However, GO catalyzes the oxidation of primary alcohols and sugars (including d-galactose and lactose) in the presence of oxygen, thus impacting the accuracy of quantitation. Aggravatingly, excessive oxygen can compete with the electron mediator of the oxidase-based amperometric strip for electrons, thus resulting in underestimation of galactose measurement. This poses a challenge in point-of-care (POC) scenarios where fresh whole blood sample, rich in oxygen due to prolonged exposure to the atmosphere, or from critically ill patients receiving oxygen support, are utilized.
# Galactose dehydrogenase, on the other hand, catalyzes d-galactose with high specificity without the involvement of oxygen. The enzyme was therefore used to be immobilized and dried onto the biosensor. […]
# galactose dehydrogenase [4] = target: T1, galactose dehydrogenase; test: Stabilizer analysis: linearity test of the galactose test strip system with different stabilizers; conditions: 0.05%, 2.5% and 5.5%
# Experimental: Galactochek Blood Galactose Meters, the galactose rapid detection system (galactose dehydrogenase concentration: 13.39%) with different types of stabilizers and concentrations, and YSI 2900 Automatic analyzer.
# All chemicals were purchased from Sigma-Aldrich (St. Louis, MO). A stock solution of galactose at 20 mg/mL was prepared with reverse osmosis water. The standard solutions are used to prepare different galactose concentration blood sample. The final concentration of galactose in blood were 200, 450, 800, 1150 and 1500 μg/mL.
# Obtain the R^2 value of the linearity test result of different strip test groups to evaluate that which type of stabilizer and concentration were suitable to be used in the system. In addition, % CV≤20% at galactose concentration range of 200-250 μg/mL, and % CV≤15% at galactose concentration range of 251-1500 μg/mL.
smiles,measurement,setting,value
O=C[C@H](O)[C@@H](O)[C@@H](O)[C@H](O)CO [galactose],concentration at 60 min,[1]; Mild or moderate impairment of liver function (N = 31),359 ± 10 µg/mL
same,concentration at 60 min,[1]; Normal liver function (N = 56),174 ± 8 µg/mL
same,concentration at 60 min,[1]; Severe impairment of liver function (N = 40),667 ± 29 µg/mL
same,"IV GSP, Digestion 1992; 52: 222-231",[2]; Mild or moderate impairment of liver function,423 ± 26.0 µg/mL
same,"IV GSP, Digestion 1992; 52: 222-231",[2]; Normal liver function,247 ± 16.5 µg/mL
same,"IV GSP, Digestion 1992; 52: 222-231",[2]; Severe impairment of liver function,630 ± 41.0 µg/mL
same,concentration at 60 min,clinical; OGSP maximum value,887 µg/mL
same,concentration at 60 min,clinical; OGSP values mainly in the range,510 to 670 µg/mL
"OC[C@H]1O[C@H](O[C@H]2O[C@H](CO)[C@@H](O)[C@H](O)[C@H]2O)[C@H](O)[C@@H](O)[C@@H]1O [Trehalose, trehalose]",galactose-dependent electrochemical signal of GD-based biosensor,galactose dehydrogenase [3],successfully preserved the activity of enzyme
"OC[C@@H](O)[C@@H](O)[C@H](O)[C@H](O)CO [Mannitol, mannitol]",suitability as stabilizer in the system,galactose dehydrogenase [4],not suitable
"OC[C@H]1O[C@@](CO)(O[C@H]2O[C@H](CO)[C@@H](O)[C@H](O)[C@H]2O)[C@@H](O)[C@@H]1O [Sucrose, sucrose]",suitability as stabilizer in the system,galactose dehydrogenase [4],not suitable
"NCC(=O)O [Glycine, glycine]",suitability as stabilizer in the system,galactose dehydrogenase [4],not suitable
